Structures are written as SMILES. Where two headings read alike, the source gives them in different places. A value given as a limit tells only on which side of the number the result lay.

Drawing on patent US9416128B2, “Fused heterocyclic compounds as ion channel modulators” (Gilead Sciences, Inc., priority 2013, dated 2016), this text covers inhibition for 20 molecules.

For test [1], the target named is wild-type human cardiac sodium channel, hNaV 1.5 (Late INa) (Homo sapiens, UniProt Q14524). Briefly: Late INa screening assay (whole cell patch clamp, QPatch, Tefluthrin-induced late current). The class given is cell-based. The following applies: HEK293, % inhibition (percent block of late INa) at 1 uM; HEK293 hNaV1.5; 10 μM Tefluthrin; read-out: Nav1.5 Late INa 1 uM. A digest of the protocol: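 HEK293 cells stably expressing hNaV1.5 without beta subunits, whole-cell patch clamp at 23-25° C; late current induced by 10 μM Tefluthrin, measured 240-265 ms into 250 ms steps to −20 mV from −120 mV at 0.1 Hz. Compounds typically 0.3 or 1 μM, three additions over 5 min; percent block normalized to 0Na baseline with rundown correction.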
wild-type human cardiac sodium channel, hNaV 1.5 (Late INa), sequence (Q14524 whole entry): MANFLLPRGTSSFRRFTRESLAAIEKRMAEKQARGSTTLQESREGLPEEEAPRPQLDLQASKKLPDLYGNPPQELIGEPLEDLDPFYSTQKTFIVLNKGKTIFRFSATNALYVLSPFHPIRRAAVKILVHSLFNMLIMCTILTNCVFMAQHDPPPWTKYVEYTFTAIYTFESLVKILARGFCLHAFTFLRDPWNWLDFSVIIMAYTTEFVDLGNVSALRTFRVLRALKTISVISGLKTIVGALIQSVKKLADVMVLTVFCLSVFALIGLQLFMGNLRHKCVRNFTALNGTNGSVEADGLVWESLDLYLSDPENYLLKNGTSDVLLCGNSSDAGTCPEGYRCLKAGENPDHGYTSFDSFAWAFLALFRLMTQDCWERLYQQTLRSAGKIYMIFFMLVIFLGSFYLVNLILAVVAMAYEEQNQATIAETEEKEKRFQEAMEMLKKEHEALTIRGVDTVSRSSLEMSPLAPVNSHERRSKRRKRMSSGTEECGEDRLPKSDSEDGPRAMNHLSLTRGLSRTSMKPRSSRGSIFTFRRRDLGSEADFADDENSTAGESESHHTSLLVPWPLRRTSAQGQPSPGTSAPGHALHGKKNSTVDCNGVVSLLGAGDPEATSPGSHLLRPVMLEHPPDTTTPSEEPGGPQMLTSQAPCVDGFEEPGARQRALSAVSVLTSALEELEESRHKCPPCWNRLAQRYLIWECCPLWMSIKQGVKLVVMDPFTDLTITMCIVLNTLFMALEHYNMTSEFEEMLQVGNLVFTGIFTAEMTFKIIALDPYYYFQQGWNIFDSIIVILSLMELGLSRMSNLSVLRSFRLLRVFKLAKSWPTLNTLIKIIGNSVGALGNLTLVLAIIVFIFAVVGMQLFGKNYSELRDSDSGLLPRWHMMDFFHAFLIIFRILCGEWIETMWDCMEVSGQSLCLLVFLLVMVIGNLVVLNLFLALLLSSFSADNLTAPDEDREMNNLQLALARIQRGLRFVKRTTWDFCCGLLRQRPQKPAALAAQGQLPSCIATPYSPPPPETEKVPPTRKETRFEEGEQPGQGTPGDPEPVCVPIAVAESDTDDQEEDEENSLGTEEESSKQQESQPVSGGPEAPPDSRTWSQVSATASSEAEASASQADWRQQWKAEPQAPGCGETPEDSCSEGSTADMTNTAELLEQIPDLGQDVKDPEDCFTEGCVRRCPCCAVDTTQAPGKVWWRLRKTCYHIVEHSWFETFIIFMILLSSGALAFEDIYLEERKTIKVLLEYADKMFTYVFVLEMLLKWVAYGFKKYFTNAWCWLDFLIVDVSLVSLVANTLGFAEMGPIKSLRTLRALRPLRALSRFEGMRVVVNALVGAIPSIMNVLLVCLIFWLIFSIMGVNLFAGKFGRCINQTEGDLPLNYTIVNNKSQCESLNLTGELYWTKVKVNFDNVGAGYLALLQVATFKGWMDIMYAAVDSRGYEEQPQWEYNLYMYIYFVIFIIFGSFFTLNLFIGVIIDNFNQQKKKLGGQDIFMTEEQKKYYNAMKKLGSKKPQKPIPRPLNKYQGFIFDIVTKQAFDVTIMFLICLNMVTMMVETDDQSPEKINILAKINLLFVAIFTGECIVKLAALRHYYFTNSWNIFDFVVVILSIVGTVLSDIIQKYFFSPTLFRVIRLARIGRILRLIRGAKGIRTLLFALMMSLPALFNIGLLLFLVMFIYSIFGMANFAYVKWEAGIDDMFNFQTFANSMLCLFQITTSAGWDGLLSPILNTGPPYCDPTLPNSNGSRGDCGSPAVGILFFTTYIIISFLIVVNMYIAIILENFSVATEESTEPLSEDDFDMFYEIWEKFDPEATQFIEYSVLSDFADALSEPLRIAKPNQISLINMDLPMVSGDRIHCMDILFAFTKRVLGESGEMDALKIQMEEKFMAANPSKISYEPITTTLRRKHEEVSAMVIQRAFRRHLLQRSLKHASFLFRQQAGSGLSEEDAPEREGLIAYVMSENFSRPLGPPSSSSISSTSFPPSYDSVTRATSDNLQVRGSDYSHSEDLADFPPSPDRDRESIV
For orientation: In patch-clamp work, channel activity is measured electrically.

In test [2] the target is wild-type human cardiac sodium channel, hNaV 1.5 (Peak INa) (Homo sapiens, UniProt Q14524). The test can be described thus: Peak INa screening assay (tonic block and use-dependent block). The class given is cell-based. As for the experimental part: The assay uses an HEK293 (human embryonic kidney) cell line heterologously expressing the wild-type human cardiac sodium channel, hNaV 1.5, purchased from Millipore (Billerica, Mass.). No beta subunits were coexpressed with the Na channel alpha subunit. Cells are maintained with standard tissue culture procedures and stable channel expression is maintained with 400 μg/mL Geneticin in the culture medium. […] Currents are digitized at 25 kHz and low-pass filtered at 5 kHz and stored in the Sophion Bioscience Oracle database (Sophion Bioscience, Copenhagen, Denmark). Analysis is performed using QPatch Assay software and data are compiled in Excel 2010 (Microsoft, Seattle, Wash., U.S.A.). Compound stocks are routinely made by the Gilead Sample Bank in vials to 10 mM in dimethyl sulfoxide (DMSO). In some cases, when compounds are not soluble in DMSO, they are made in 100% ethanol. Stocks are sonicated as necessary. The extracellular solution for screening Late INa is composed of: 140 mM NaCl, 4 mM KCl, 1.8 mM CaCl2, 1 mM MgCl2, 10 mM HEPES and 10 mM Dextrose with pH adjusted to 7.35 using NaOH. The intracellular solution contains: 105 mM CsF, 20 mM CsCl, 10 NaF, 2 mM EGTA, 10 mM HEPES and 10 mM Dextrose with pH adjusted to 7.35 with CsOH. Compounds are diluted in extracellular solution using a MicroLab Nimbus (Hamilton Robotics, Reno, Nev.) to between 0.3 and 3 μM in glass vials and transferred to glass well plates before robotic addition to the cells. […] It is contemplated that the compounds of Formula I avoid significant block of peak INa. […] The intracellular solution used for the Peak INa assay is the same as outlined for the Late INa assay (see above). After establishing the whole cell recording configuration, channels were stimulated to open with low frequency (0.1 Hz) for so that the recording can be monitored and the extent to which the recording has stabilized can be assessed. The test compound is then applied at 1 or 3 μM was added 2 times at 60 second intervals. After the second compound addition, a 200 second wait period was imposed to allow for equilibration. Voltage protocols for TB and UDB are were performed in the absence and presence of compound and TB and UDB are calculated with respect to the compound free condition. Both TB and UDB were analyzed by incorporating rundown correction for the peak INa.
wild-type human cardiac sodium channel, hNaV 1.5 (Peak INa), sequence (Q14524 whole entry): as above

Where [3] appears, read: % inhibition, use-dependent block of peak INa at 3 uM, 3 Hz, pulse 50, read-out: Nav1.5 Peak UDB 3 Hz 3 uM.
Where [4] appears, read: read-out: Nav1.5 Peak TB 3 uM, % inhibition, tonic block of peak INa at 3 uM, 0.1 Hz, holding -100 mV.

For `O=C1Oc2ccc(-c3ccc(C(F)(F)F)cc3)cc2CN1Cc1ccccn1` [Example 24, 3-(pyridin-2-ylmethyl)-6-(4-(trifluoromethyl)phenyl)-3,4-dihydro-2H-benzo[e][1,3]oxazin-2-one], in test [1], the inhibition at 1 µM came out at 55.8%. The inhibition at 3 µM amounted to 5.9% in test [2] (setting [3]) and 28.5% in test [2] (setting [4]).

As for `CC(C)Oc1cc(C(F)(F)F)ccc1-c1ccc2c(c1)CN(Cc1ncccn1)C(=O)O2` [Example 25, 6-(2-isopropoxy-4-(trifluoromethyl)phenyl)-3-(pyrimidin-2-ylmethyl)-3,4-dihydro-2H-benzo[e][1,3]oxazin-2-one], the inhibition at 1 µM in test [1] came to 54%. Besides, the inhibition at 3 µM was < 5% in test [2] (setting [3]) and 29.7% in test [2] (setting [4]).

Take `O=C1Oc2ccc(-c3ccc4c(c3)OC(F)(F)O4)cc2CN1Cc1ncccn1` [Example 26, 6-(2,2-difluorobenzo[d][1,3]dioxol-5-yl)-3-(pyrimidin-2-ylmethyl)-3,4-dihydro-2H-benzo[e][1,3]oxazin-2-one]: the inhibition at 1 µM in test [1] stood at 35.2%. Besides, the inhibition at 3 µM in test [2] (setting [3]) is < 5%; in test [2] (setting [4]), 20.7%.

For `CCCOc1cc(C(F)(F)F)ccc1-c1ccc2c(c1)CN(Cc1ncccn1)C(=O)O2` [Example 27, 6-(2-propoxy-4-(trifluoromethyl)phenyl)-3-(pyrimidin-2-ylmethyl)-3,4-dihydro-2H-benzo[e][1,3]oxazin-2-one], in test [1], the inhibition at 1 µM stood at 60.1%. Further, the inhibition at 3 µM in test [2] (setting [3]) turned out to be 8.1%; in test [2] (setting [4]), 32%.

For the molecule `CCCOc1cc(OC(F)(F)F)ccc1-c1ccc2c(c1)CN(Cc1ncccn1)C(=O)O2` [Example 28, 6-(2-propoxy-4-(trifluoromethoxy)phenyl)-3-(pyrimidin-2-ylmethyl)-3,4-dihydro-2H-benzo[e][1,3]oxazin-2-one], in test [1], the inhibition at 1 µM came out at 45.4%. Further, the inhibition at 3 µM came to 6.9% in test [2] (setting [3]) and 12.9% in test [2] (setting [4]).

`Cc1ccnc(CN2Cc3cc(-c4ccc(OC(F)(F)F)cc4)ccc3OC2=O)n1` [Example 29, 3-((4-methylpyrimidin-2-yl)methyl)-6-(4-(trifluoromethoxy)phenyl)-3,4-dihydro-2H-benzo[e][1,3]oxazin-2-one]: the inhibition at 1 µM in test [1] was found to be 61.6%. Further, the inhibition at 3 µM amounted to 14.1% in test [2] (setting [3]) and 36.1% in test [2] (setting [4]).

With `Cc1ccnc(CN2Cc3cc(-c4ccc(C(F)(F)F)cc4)ccc3OC2=O)n1` [Example 30, 3-((4-methylpyrimidin-2-yl)methyl)-6-(4-(trifluoromethyl)phenyl)-3,4-dihydro-2H-benzo[e][1,3]oxazin-2-one], the inhibition at 1 µM in test [1] amounted to 54.5%. Besides, the inhibition at 3 µM in test [2] (setting [3]) is 13.2%; in test [2] (setting [4]), 36.5%.

As to `COc1cc(OC(F)(F)F)ccc1-c1ccc2c(c1)CN(Cc1nccc(C)n1)C(=O)O2` [Example 31, 6-(2-methoxy-4-(trifluoromethoxy)phenyl)-3-((4-methylpyrimidin-2-yl)methyl)-3,4-dihydro-2H-benzo[e][1,3]oxazin-2-one], the inhibition at 1 µM in test [1] came out at 34.4%. Besides, the figures for the inhibition at 3 µM in test [2] (setting [3]) and in test [2] (setting [4]) were < 5% and 12.2%, respectively.

Regarding `Cc1ccnc(CN2Cc3cc(-c4ccc(OC(F)(F)F)cc4F)ccc3OC2=O)n1` [Example 32, 6-(2-fluoro-4-(trifluoromethoxy)phenyl)-3-((4-methylpyrimidin-2-yl)methyl)-3,4-dihydro-2H-benzo[e][1,3]oxazin-2-one], the inhibition at 1 µM in test [1] came to 43.4%. Besides, the inhibition at 3 µM in test [2] (setting [3]) is < 5%; in test [2] (setting [4]), 33.1%.

Regarding `Cc1ccnc(CN2Cc3cc(-c4ccc(OC(F)(F)F)cc4C)ccc3OC2=O)n1` [Example 33, 6-(2-methyl-4-(trifluoromethoxy)phenyl)-3-((4-methylpyrimidin-2-yl)methyl)-3,4-dihydro-2H-benzo[e][1,3]oxazin-2-one], in test [1], the inhibition at 1 µM came to 33%. The inhibition at 3 µM in test [2] (setting [3]) was < 5%; in test [2] (setting [4]), 27.8%.

Consider `COc1cc(C(F)(F)F)ccc1-c1ccc2c(c1)CN(Cc1ncccn1)C(=O)O2` [Example 34, 6-(2-methoxy-4-(trifluoromethyl)phenyl)-3-(pyrimidin-2-ylmethyl)-3,4-dihydro-2H-benzo[e][1,3]oxazin-2-one], for which the inhibition at 1 µM in test [1] came out at 44.6%. Besides, the values for the inhibition at 3 µM in test [2] (setting [3]) and in test [2] (setting [4]) were < 5% and 27.7%, respectively.

Regarding `CCOc1cc(C(F)(F)F)ccc1-c1ccc2c(c1)CN(Cc1ncccn1)C(=O)O2` [Example 35, 6-(2-ethoxy-4-(trifluoromethyl)phenyl)-3-(pyrimidin-2-ylmethyl)-3,4-dihydro-2H-benzo[e][1,3]oxazin-2-one], the inhibition at 1 µM in test [1] is 49.4%. In addition, the inhibition at 3 µM was determined as 9.7% in test [2] (setting [3]) and 20.2% in test [2] (setting [4]).

With `O=C1Oc2ccc(-c3ccc(C(F)(F)F)cc3F)cc2CN1Cc1ncccn1` [Example 36, 6-(2-fluoro-4-(trifluoromethyl)phenyl)-3-(pyrimidin-2-ylmethyl)-3,4-dihydro-2H-benzo[e][1,3]oxazin-2-one], the inhibition at 1 µM in test [1] worked out at 43.6%. The inhibition at 3 µM in test [2] (setting [3]) was 5.9%; in test [2] (setting [4]) it was 11.5%.

With `Cc1cc(C(F)(F)F)ccc1-c1ccc2c(c1)CN(Cc1ncccn1)C(=O)O2` [Example 37, 6-(2-methyl-4-(trifluoromethyl)phenyl)-3-(pyrimidin-2-ylmethyl)-3,4-dihydro-2H-benzo[e][1,3]oxazin-2-one], the inhibition at 1 µM in test [1] amounted to 41.1%. Also, the inhibition at 3 µM was < 5% in test [2] (setting [3]) and 14% in test [2] (setting [4]).

On to `O=C1Oc2ccc(-c3ccc(C4(C(F)(F)F)CC4)cc3)cc2CN1Cc1ncccn1` [Example 38, 3-(pyrimidin-2-ylmethyl)-6-(4-(1-(trifluoromethyl)cyclopropyl)phenyl)-3,4-dihydro-2H-benzo[e][1,3]oxazin-2-one], for which, in test [1], the inhibition at 1 µM is 54.2%. Moreover, the figures for the inhibition at 3 µM in test [2] (setting [3]) and in test [2] (setting [4]) were < 5% and 55.6%, respectively.

Consider `CC(C)Oc1cc(OC(F)(F)F)ccc1-c1ccc2c(c1)CN(Cc1ncccn1)C(=O)O2` [Example 39, 6-(2-isopropoxy-4-(trifluoromethoxy)phenyl)-3-(pyrimidin-2-ylmethyl)-3,4-dihydro-2H-benzo[e][1,3]oxazin-2-one], for which the inhibition at 1 µM in test [1] is 33.7%. Moreover, the inhibition at 3 µM came to 5.9% in test [2] (setting [3]) and 17.5% in test [2] (setting [4]).

For `CCOc1cc(OC(F)(F)F)ccc1-c1ccc2c(c1)CN(Cc1ncccn1)C(=O)O2` [Example 40, 6-(2-ethoxy-4-(trifluoromethoxy)phenyl)-3-(pyrimidin-2-ylmethyl)-3,4-dihydro-2H-benzo[e][1,3]oxazin-2-one], the inhibition at 1 µM in test [1] was 49.4%. Further, the values for the inhibition at 3 µM in test [2] (setting [3]) and in test [2] (setting [4]) were 10.2% and 22.4%, respectively.

In the case of `Cc1cnc(CN2Cc3cc(-c4ccc(C(F)(F)F)cc4F)ccc3OC2=O)nc1` [Example 41, 6-(2-fluoro-4-(trifluoromethyl)phenyl)-3-((5-methylpyrimidin-2-yl)methyl)-3,4-dihydro-2H-benzo[e][1,3]oxazin-2-one], the inhibition at 1 µM in test [1] came to 45.7%. The inhibition at 3 µM in test [2] (setting [3]) is < 5%; in test [2] (setting [4]), 17.5%.

In the case of `COc1cc(C(F)(F)F)ccc1-c1ccc2c(c1)CN(Cc1ncc(C)cn1)C(=O)O2` [Example 42, 6-(2-methoxy-4-(trifluoromethyl)phenyl)-3-((5-methylpyrimidin-2-yl)methyl)-3,4-dihydro-2H-benzo[e][1,3]oxazin-2-one], in test [1], the inhibition at 1 µM came out at 42.7%. Also, the inhibition at 3 µM in test [2] (setting [3]) is < 5%; in test [2] (setting [4]), 12.7%.

As to `Cc1cnc(CN2Cc3cc(-c4ccc(C(F)(F)F)cc4C)ccc3OC2=O)nc1` [Example 43, 6-(2-methyl-4-(trifluoromethyl)phenyl)-3-((5-methylpyrimidin-2-yl)methyl)-3,4-dihydro-2H-benzo[e][1,3]oxazin-2-one], the inhibition at 1 µM in test [1] worked out at 37.9%. Moreover, the values for the inhibition at 3 µM in test [2] (setting [3]) and in test [2] (setting [4]) were < 5% and 19.2%, respectively.
